Test results from patent US20230148599A1, “FUNGICIDAL MIXTURES CONTAINING PYRAZOLE DERIVATIVES” (FMC Corporation, priority 2020, published 2023).

Experiments:
Type in all cases: in vivo
Conditions in all cases: 50 ppm, 100 = 100% disease control, 0 = no control
[1] = test system: Septoria tritici; assay: Test A: wheat leaf blotch, preventive spray on wheat seedlings
Summary of the method: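 Wheat seedlings sprayed to run-off with compound suspended in acetone/water with 250 ppm PEG400 surfactant, inoculated next day with Septoria tritici spores. Held 48 h saturated at 24 °C, then 17 days at 20 °C; disease rated 0–100% control relative to controls.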

[2] = test system: Puccinia recondita f. sp. tritici; assay: Test B: wheat leaf rust, preventive spray on wheat seedlings
Summary of the method: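 Wheat seedlings were sprayed to run-off with compound suspended at ppm concentrations in acetone/water containing 250 ppm PEG400. The next day they were inoculated with Puccinia recondita f. sp. tritici spores, held saturated at 20 °C for 24 h, then kept 7 days at 20 °C. Disease control was rated 0–100% relative to untreated controls.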

[3] = test system: Blumeria graminis f. sp. tritici; assay: Test C: wheat powdery mildew, preventive spray on wheat seedlings
Summary of the method: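 Seedlings were sprayed to run-off with compound suspended (ppm) in 50/50 acetone–water containing 250 ppm PEG400, then spore-dust inoculated the following day. After 8 days at 20° C, disease control was rated visually from 0 to 100 against controls.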

[4] = test system: Phakopsora pachyrhizi; assay: Test D: Asian soybean rust, preventive spray on soybean seedlings
Summary of the method: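 Compounds in acetone/water (50/50) with 250 ppm PEG400, dosed in ppm, sprayed to run-off on soybean seedlings; inoculated with P. pachyrhizi spores next day. Held 24 h at 22 °C in saturated air, then 8 days at 22 °C; visual rating of disease control, 0–100, relative to untreated controls.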

[5] = test system: Botrytis cinerea; assay: Test E: tomato Botrytis, preventive spray on tomato seedlings
Summary of the method: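 Compound suspended in 50/50 acetone/water with 250 ppm PEG400 surfactant and sprayed to run-off on tomato seedlings; Botrytis cinerea spores applied the next day. Incubation 48 h at 20° C in saturated atmosphere, then 3 days at 24° C. Visual rating 0–100% disease control relative to controls.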

[6] = test system: Alternaria solani; assay: Test F: tomato early blight, preventive spray on tomato seedlings
Summary of the method: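 Tomato seedlings were sprayed to run-off with compound suspended in acetone/water (50/50) with 250 ppm PEG400 and inoculated with Alternaria solani spores the next day. Plants were held 48 h at 27 °C in saturated humidity, then 3 days at 20 °C. Disease control was rated visually from 0 to 100 against untreated controls.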

SMILES | Test A disease control rating [1] [%] | Test B disease control rating [2] [%] | Test C disease control rating [3] [%] | Test D disease control rating [4] [%] | Test E disease control rating [5] [%] | Test F disease control rating [6] [%]
Cn1nc(C#N)c(-c2ccc(F)cc2Cl)c1Nc1c(F)cccc1[N+](=O)[O-] [compound 122] | 100 | 100 | 94 | 0 | 100 | 99
Cc1nn(C)c(Nc2c(Cl)cccc2[N+](=O)[O-])c1-c1ccc(C#N)cc1Cl [compound 123] | 100 | 97 | 81 | 0 | 100 | 66
COc1ccc(Nc2c(-c3ccc(C#N)cc3Cl)c(C)nn2C)c([N+](=O)[O-])c1 [compound 124] | 100 | 100 | 99 | 25 | 100 | 99
Cc1nn(C)c(Nc2c(Br)cccc2[N+](=O)[O-])c1-c1ccc(C#N)cc1Cl [compound 125] | 100 | 96 | 0 | 0 | 99 | 9
Cc1nn(C)c(Nc2ccccc2[N+](=O)[O-])c1-c1ccc(F)cc1Cl [compound 126] | 98 | 85 | 96 | 0 | 100 | 68
CCc1nn(C)c(Nc2c(Cl)cc(Br)cc2[N+](=O)[O-])c1-c1ccc(F)cc1Cl [compound 128] | 100 | 98 | 96 | 31 | 99 | 33
Cc1nn(C)c(Nc2cc(Cl)ccc2[N+](=O)[O-])c1-c1ccc(F)cc1Cl [compound 130] | 85 | 86 | 20 | 0 | 85 | 0
Cc1nn(C)c(Nc2c(F)cc(Cl)cc2[N+](=O)[O-])c1-c1ccc(F)cc1Br [compound 131] | 100 | 100 | 99 | 80 | 99 | 100
Cc1nn(C)c(Nc2c(F)cc(Br)cc2[N+](=O)[O-])c1-c1ccc(Cl)cc1Cl [compound 132] | 100 | 98 | 47 | 0 | 99 | 96
Cc1nn(C)c(Nc2c(Cl)cccc2[N+](=O)[O-])c1-c1ccc(Cl)cc1Cl [compound 133] | 100 | 86 | 0 | 0 | 97 | 0
